Laboratory results taken from patent EP4706646A1, “NOVEL DOUBLE-STRANDED SIRNA, CONJUGATE THEREOF, AND USE THEREOF” (priority 2023, dated 2024).
Where two headings read alike, the source gives them in different places.

Key:
Hepatitis B virus [1] = test: HBV-Tg transgenic mouse experiment, serum HBsAg and HBeAg; assay type: in vivo, HBV-Tg transgenic mice, C57B/6N-Tg(1.28HBV)/Vst; conditions: 3 mg/kg, single subcutaneous dose
Source text: Experimental Animals: HBV-Tg transgenic mice, C57B/6N-Tg(1.28HBV)/Vst, SPF-grade males, 6-8 weeks old, weighing 16-20 g, were purchased from Beijing Vitalstar Biotechnology Co.,Ltd., Animal Production Certificate No.: SCXK(Beijing)2019-0002. Animals were housed individually in individual cages by Beijing Vitalstar Biotechnology Co.,Ltd.
Animal Grouping: Based on the quantitative results of serum HBsAg (primary) and HBeAg (secondary), animals were stratified and randomly divided into groups, with 5 animals per group.
(§1) Test Sample Preparation and Administration: The required dosage of drug powder was calculated based on the purity of each test sample. At a dosing concentration of 0.6 mg/mL, the corresponding saline solution was added and mixed by vortexing until a colorless, transparent liquid was obtained. The day of the first administration was defined as Day 0. All groups received a single subcutaneous dose of 5 mL/kg on Day 0. If blood sampling was required on the day of dosing, it was performed after blood collection.
Main Outcome Measures: Animals were weighed and blood was collected once on Days 3, 7, 14, 21, 28 and 35. Serum was separated for HBsAg and HBeAg level determination.
(§2) Serum HBsAg and HBeAg Level Determination: After blood collection, serum was separated, diluted with PBS, and submitted for analysis. From each sample, 10 µL of serum was removed and diluted to 500 µL (50-fold dilution) with PBS. Serum HBsAg and HBeAg levels were measured using a Hepatitis B e Antigen Assay Kit (Mike Biotech) and a Hepatitis B Surface Antigen Assay Kit (Mike Biotech), respectively.

hepatitis B virus (HBV) = test: Anti-HBV activity in the PHH in vitro infection model (transfection or free uptake); assay type: cell-based, HBV serotype D; conditions: for EC50: PHH infected with HBV serotype D, supernatant Day 8
Experimental: Transfection and Drug Dosing: On Day 0, revived PHH were adjusted to an appropriate density (6.67E+05 cells/ml) and seeded into 48-well cell culture plates at 1.32E+05 cells per well. On Day 1, HBV serotype D was added to infect PHH (800 GE/cell). On Day 2, fresh medium was replaced. On Day 4, the cell culture medium was discarded, and the test compound was serially diluted to the required concentration, which were then introduced into the cells via transfection using Lipofectamine™ RNAiMAX. The starting concentration of the test compound was 500 pM, and 5-fold dilutions were performed. Seven concentrations were set up in duplicate, with wells containing only the transfection reagent as the medium control. Four to five hours after transfection, fresh medium without compound was replaced. The final DMSO concentration in the medium was 2%. On Day 6, fresh medium without compound was replaced. On Day 8, cell supernatants were harvested, and cell viability was assessed using CCK-8 assay.
Drug Administration via Ad libitum uptake : On day 0, the test compound was diluted to the desired concentration in enzyme-free water, starting at 500 nM. Five-fold dilutions were performed, each with seven concentrations, in duplicate, with 22 µl added to each well of the cell culture plate. Thawed frozen PHHs were plated to an appropriate density (6.67E+05 cells/ml), with 1.32E+05 cells per well. The cells were then plated and allowed to ad libitum uptake of the test compound. On day 1, the medium was changed, and the PHHs were infected with HBV serotype D (800 GE/cell). On day 2, fresh medium was replaced without virus or test compound. The final DMSO concentration in the medium was 2%. On Day 4 and 6, fresh medium without test compound was replaced. On Day 8, cell supernatants were harvested, and cell viability was assessed using CCK-8 assay.
Sample testing: qPCR was used to detect the HBV DNA content in the cell culture supernatant; ELISA was used to detect the HBsAg and HBeAg content in the cell culture supernatant. The experimental results of the double-stranded siRNA conjugate of the present invention reducing the levels of HBsAg, HBeAg and DNA in cells are shown in Table 3. Table 3: Experimental results of the double-stranded siRNA conjugates of the present invention in reducing the levels of HBsAg, HBeAg and DNA in cells

Hepatitis B virus [2] = test: Hepatitis B virus AAV mouse experiment, serum HBsAg and HBeAg; assay type: in vivo, rAAV8-1.3HBV/C57BL/6 Mouse; conditions: 3 mg/kg, single subcutaneous dose
Source text: Preparation and Grouping of rAAV8-1.3HBV/C57BL/6 Mouse Model: A persistent HBV infection mouse model was established by tail vein injection of rAAV8-1.3HBV (strain C) into C57 mice. The AAV virus injection dose was 1E+11 vg/mouse. Six weeks after injection, blood samples were collected for analysis of serum HBeAg, HBsAg and ALT levels. Based on the quantitative results of serum HBsAg (primary) and HBeAg (secondary), 35 mice were randomly divided into stratified groups, with 5 mice per group.
as §1, with “collection. Main Outcome Measures: Mice were weighed and blood was collected once on Days 3, 7, 14, 21 and 28. Serum was separated for HBsAg and HBeAg level determination.” for “collection.”
as §2, with “Kit” for “Kit (Mike Biotech)”, “Kit,” for “Kit (Mike Biotech),”

[3] = compared with vehicle control group
[4] = No transfection (ad libitum uptake, Day 0), ELISA, read-out: Experimental results EC50 HBeAg
[5] = No transfection (ad libitum uptake, Day 0), ELISA, read-out: Experimental results EC50 HBsAg
[6] = No transfection (ad libitum uptake, Day 0), qPCR, read-out: Experimental results EC50 DNA

Substance	inhibitory activity on HBsAg compared with control DAW30025 (S149) (Hepatitis B virus [1]; Figure 1)	inhibitory effect on reducing HBeAg (Hepatitis B virus [1]; [3])	inhibitory effects on HBsAg (Hepatitis B virus [1]; compared with vehicle control group, Figure 1)	EC50 (hepatitis B virus (HBV); [4]) [nM]	EC50 (hepatitis B virus (HBV); [5]) [nM]	EC50 (hepatitis B virus (HBV); [6]) [nM]	EC50 (hepatitis B virus (HBV); Transfection (RNAiMAX, Day 4), ELISA, read-out: Experimental results EC50 HBeAg) [nM]	EC50 (hepatitis B virus (HBV); Transfection (RNAiMAX, Day 4), ELISA, read-out: Experimental results EC50 HBsAg) [nM]	EC50 (hepatitis B virus (HBV); Transfection (RNAiMAX, Day 4), qPCR, read-out: Experimental results EC50 DNA) [nM]	inhibitory activity against HBsAg, HBeAg and DNA (hepatitis B virus (HBV); statement in words on Table 3)	inhibitory activity against HBsAg, HBeAg and DNA compared with control S148 (hepatitis B virus (HBV); without transfection)	inhibitory activity against HBsAg compared with controls DAW30025 (S149) and DAW30336 (S151) (Hepatitis B virus [2]; Figure 2)	inhibitory effect on reducing HBeAg (Hepatitis B virus [2]; [3])	inhibitory effects on HBsAg (Hepatitis B virus [2]; compared with vehicle control group, Figure 2)
S146: double-stranded siRNA conjugate; sense strand-conjugation group SEQ ID NO 21, antisense SEQ ID NO 27 u•G•ugaAYCGaaguGcAcac•u•u (sense GUGUGCACUUCGCUUCYCA; antisense UGUGAAYCGAAGUGCACACUU; conjugation group on sense strand, modifications, key not given here; listed as Albies alba)	significantly superior to that of the control group	a certain inhibitory effect	significant inhibitory effects	2.24	0.782	0.737	0.209	0.05	0.082	good inhibitory activity	significantly better than that of the control S148	–	–	–
S147: double-stranded siRNA conjugate; sense strand-conjugation group SEQ ID NO 41, antisense SEQ ID NO 27 u•G•ugaAYCGaaguGcAcac•u•u (sense GUGUGCACUUCGCUUYACA; antisense UGUGAAYCGAAGUGCACACUU; conjugation group on sense strand, modifications, key not given here; listed as Albies alba)	–	–	–	–	–	–	–	–	–	–	–	significantly better than that of the controls	a certain inhibitory effect	significant inhibitory effects
S148: control double-stranded siRNA conjugate; sense strand-conjugation group SEQ ID NO 42, antisense SEQ ID NO 33 (sense GUGUGCACUUCGCUUCACA; antisense TGTGAAGCGAAGTGCACACTT; conjugation group on sense strand, position not given here; listed as Albies alba) [reference compound]	–	–	–	7.42	2.9	5.72	–	–	–	–	–	–	–	–
